Where no end group is shown, it is not given here.
Legend:
[1] = tested on: T47D breast cancer xenografts; assay: T-47D breast cancer xenograft, SorC13 with Paclitaxel (Example 27); type: in vivo, NOD/SCID mice; conditions: for % ΔT/ΔC (tumor volume normalized to control) / Mean tumour volume: alone or with SorC13; for Mean tumour volume: after 12-day rest post-treatment; for Mean tumor volume: day 12 of treatment, alone or with SorC13 300 mg/kg
Experimental: Tumor volumes (V) were calculated by caliper measurement using standard measurements of the width (W), length (L) and thickness (T) of tumors. Animals were randomized into treatment groups so that the median tumor volumes of each group were similar at the start of dosing. Percentage ΔT/ΔC values, as a measure of efficacy, were determined where ΔC refers to change in volume of control or untreated tumor, and ΔT refers to change in volume of treated tumor.
Animals were intraperitoneally (i.p.) injected with the vehicular control, or the low, medium or high doses of CAT or CAT and SorC13. Mice received low medium or high doses of CAT or CAT and SorC13 by i.p. injection every day for 12 days or CAT injections as set out in Table 10. Paclitaxel was injected first, followed by carboplatin 30 minutes later and then SorC13. The tumor volume and body weights were measured every day. As well, general health of the animals was monitored every day.
The human […] breast cancer cell line T-47D (ATCC #HTB-133), was cultured in growth media prepared with ATCC complete growth medium. The base medium for the T-47D cell line is ATCC-formulated RPMI-1640 Medium. The complete growth medium is supplemented with 0.2 Units/ml bovine insulin and fetal bovine serum to a final concentration of 10% (v/v). Cells were cultured at 37° C. in an atmosphere of 95% air and 5% carbon dioxide with sub-culturing done according to ATCC guidelines.
The cell preparation, formulation, implantation, measurement and treatment procedures were otherwise as described in Example 26 and Table 10 but with Paclitaxel at low (6 mg/kg), medium (10 mg/kg) and high (16 mg/kg) doses.

human TRPV6b = target: T1, human TRPV6b (Homo sapiens, UniProt Q9H1D0); assay: Whole-cell patch clamp of calcium store operated current (ISOC) through TRPV6 in transfected LnCaP cells; type: cell-based
T1 construct: expressed in transfected cells; host or cells: LnCaP (ATCC CRL-1740), human lymph node prostate cancer cells
T1 sequence (Q9H1D0 41-765 limits assumed): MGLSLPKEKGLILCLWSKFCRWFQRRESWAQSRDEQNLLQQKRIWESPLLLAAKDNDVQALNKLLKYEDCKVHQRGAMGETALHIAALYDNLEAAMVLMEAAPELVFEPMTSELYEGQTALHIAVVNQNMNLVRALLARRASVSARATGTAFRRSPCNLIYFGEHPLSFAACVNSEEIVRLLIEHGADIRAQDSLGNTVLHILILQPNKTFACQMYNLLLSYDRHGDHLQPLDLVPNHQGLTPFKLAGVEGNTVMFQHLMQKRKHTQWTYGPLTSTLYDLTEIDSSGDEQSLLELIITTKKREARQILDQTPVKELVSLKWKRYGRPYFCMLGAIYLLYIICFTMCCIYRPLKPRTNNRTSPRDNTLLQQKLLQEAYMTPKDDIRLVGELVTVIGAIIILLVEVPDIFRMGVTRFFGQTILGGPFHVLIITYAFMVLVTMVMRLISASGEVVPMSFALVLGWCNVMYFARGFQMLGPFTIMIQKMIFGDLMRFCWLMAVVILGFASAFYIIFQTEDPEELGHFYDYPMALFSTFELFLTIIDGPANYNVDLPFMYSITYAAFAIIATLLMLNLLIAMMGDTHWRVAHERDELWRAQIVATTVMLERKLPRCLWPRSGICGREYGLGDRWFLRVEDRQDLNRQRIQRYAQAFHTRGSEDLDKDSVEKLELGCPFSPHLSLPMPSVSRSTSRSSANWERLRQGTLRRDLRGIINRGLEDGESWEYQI
Experimental: An expression vector (pCAGS-IRES-hTRPV6b) (Bodding et al. 2003) containing the nucleotide code for human TRPV6b was transfected into and expressed by human lymph node prostate cancer (LnCaP, ATCC CRL-1740). Patch clamping with whole-cell current acquisition was used to measure the calcium current through this channel. Cells were treated and calcium store operated current (ISOC) was measured with either SorC13 (n=90) or SorC27 (n=30) in a closed-circuit perfusion for 3 min at each of cumulative concentrations of 0 (baseline), 100 nM, 500 nM 1 uM, 30 uM and 100 uM. Washout perfusion was done at 2 mL/min for 3 min. […] Further, both C-peptides are very strong inhibitors of calcium current through the TRPV6 channel with inhibition constants in the 100 nM range.

[2] = Tissue distribution of Cy5.5-labeled peptides by optical imaging; type: in vivo, CD1 mice; conditions: four hours after i.v. injection of 100 ug
Text: SorC13 and SorC27 were labeled with the near-infrared probe, Cy5.5. SorC13 was labeled at lysine-1 and lysine-8 with the infrared fluorescent probe cy5.5 through reaction with Cy5.5 NHS ester-activated process. SorC27 was labeled at the single cysteine thiol with Cy5.5 maleamide-activated reaction. The labeled peptides were purified with a combination of size exclusion chromatography and HPLC. The label, Cy5.5, fluoresces in the infra-red region after excitation with a scanning laser. The low energy laser is able to penetrate the animal to about 1 cm and, thus, by scanning prone and supine positions, the presence of the tagged peptides can be quantified in three dimensions.
Cy5.5-labeled peptides were intravenously injected into CD1 mice (4 for each compound) at 100 ug per animal in 100 uL, and animals were imaged live using an optical imaging system, Optix eXplorer (GE Healthcare Systems) at different time points (30 min, 90 min, 4 h). […] The bio-distribution of the labeled peptides in different organs and tissues were visualized and relatively quantified by optical imaging analysis. This protocol allows for visualization of the location of the labeled peptides and how the location changes over time. […] Nodes that accumulated the labeled peptides are indicated by line 1 (superfacial cervical nodes), line 4 (axillary nodes), line 5 (brachial nodes), line 8 (mesenteric nodes) and line 9 (inguinal nodes). FIGS. 8, 9 and 10 show the amounts of labeled peptides in various organs ex vivo.

## CC(=O)O[C@H]1C(=O)[C@@]2(C)[C@H]([C@H](OC(=O)c3ccccc3)[C@]3(O)C[C@H](OC(=O)[C@H](O)[C@@H](NC(=O)c4ccccc4)c4ccccc4)C(C)=C1C3(C)C)[C@]1(OC(C)=O)CO[C@@H]1C[C@@H]2O [Paclitaxel]
[1]; Day 6, high Paclitaxel (16 mg/kg)
  % ΔT/ΔC (tumor volume normalized to control): 17.8%
[1]; Day 6, low Paclitaxel (6 mg/kg)
  % ΔT/ΔC (tumor volume normalized to control): 26.0%
[1]; Day 6, medium Paclitaxel (10 mg/kg)
  % ΔT/ΔC (tumor volume normalized to control): −4.0%
[1]; Day 12, high Paclitaxel (16 mg/kg)
  % ΔT/ΔC (tumor volume normalized to control): −96.4%
[1]; Day 12, low Paclitaxel (6 mg/kg)
  % ΔT/ΔC (tumor volume normalized to control): 16.3%
[1]; Day 12, medium Paclitaxel (10 mg/kg)
  % ΔT/ΔC (tumor volume normalized to control): −45.9%
[1]; Day 18 (rest period), high Paclitaxel
  % ΔT/ΔC (tumor volume normalized to control): −112.4%
[1]; Day 18 (rest period), low Paclitaxel
  % ΔT/ΔC (tumor volume normalized to control): 46.0%
[1]; Day 18 (rest period), medium Paclitaxel
  % ΔT/ΔC (tumor volume normalized to control): −56.9%
[1]; Day 24 (rest period), high Paclitaxel
  % ΔT/ΔC (tumor volume normalized to control): −88.4%
[1]; Day 24 (rest period), low Paclitaxel
  % ΔT/ΔC (tumor volume normalized to control): 33.3%
[1]; Day 24 (rest period), medium Paclitaxel
  % ΔT/ΔC (tumor volume normalized to control): −33.2%
[1]; high Paclitaxel (16 mg/kg)
  Mean tumour volume: 20.24 mm^3
  Mean tumor volume: 26.47 mm^3
[1]; low Paclitaxel (6 mg/kg)
  Mean tumour volume: 52.08 mm^3
  Mean tumor volume: 46.37 mm^3
[1]; medium Paclitaxel (10 mg/kg)
  Mean tumour volume: 35.52 mm^3
  Mean tumor volume: 36.23 mm^3

## HPSKVDLPR [SorC9, HPSKVDLPR]
Human TRPV6b
  Kd: ~0.09 µM

## C#CCN1C(C)=C(C(=O)OC)C(c2cccc([N+](=O)[O-])c2)C(C(=O)OCC)=C1C (stereo not drawn) [MRS-1845, N-propargylnitrendipene, reference compound]
Human TRPV6b; positive control at 5 uM
  inhibition of the calcium current: demonstrated inhibition of the calcium current

## SorC27-Cy5.5: SorC27 labeled at the single cysteine thiol with Cy5.5 (EGKLSSNDTEGGLC(Cy5.5)KEFLHPSKVDLPR)
[2]
  accumulation at lymph nodes (superfacial cervical, axillary, branchial, mesenteric, inguinal): Significant accumulation

— patent publication US10058587B2, “Peptide composition for cancer treatment by inhibiting TRPV6 calcium channel activity” (priority 2008, dated 2018)
